For five compounds, activation results are on record in PMC10175918 (Communications Biology, 2023).

What all share (assay): TGFα-shedding assay-based GPCR screening with chimeric Gα subunit proteins
Assay type in all cases: cell-based

Experiment [1] has as its target 348 GPCRs (Homo sapiens, UniProt P21918). The conditions noted are these: 10µM, Favipiravir 100μM.
Experiment [2] deals with T1, 348 GPCRs (Homo sapiens, UniProt P37288).
T1 construct: expressed in transfected cells; host or cells: HEK293A

In experiment [3] the target is T2, 348 GPCRs (Homo sapiens, UniProt P43116).
T2 construct: expressed in transfected cells; host or cells: HEK293A
The conditions noted are these: 10µM, Favipiravir 100μM.

Experiment [4] addresses 348 GPCRs (Homo sapiens, UniProt P43220). The conditions noted are these: 10µM, Favipiravir 100μM.
Experiment [5] deals with T3, 348 GPCRs (Homo sapiens, UniProt P48546).
T3 sequence (P48546 22-466): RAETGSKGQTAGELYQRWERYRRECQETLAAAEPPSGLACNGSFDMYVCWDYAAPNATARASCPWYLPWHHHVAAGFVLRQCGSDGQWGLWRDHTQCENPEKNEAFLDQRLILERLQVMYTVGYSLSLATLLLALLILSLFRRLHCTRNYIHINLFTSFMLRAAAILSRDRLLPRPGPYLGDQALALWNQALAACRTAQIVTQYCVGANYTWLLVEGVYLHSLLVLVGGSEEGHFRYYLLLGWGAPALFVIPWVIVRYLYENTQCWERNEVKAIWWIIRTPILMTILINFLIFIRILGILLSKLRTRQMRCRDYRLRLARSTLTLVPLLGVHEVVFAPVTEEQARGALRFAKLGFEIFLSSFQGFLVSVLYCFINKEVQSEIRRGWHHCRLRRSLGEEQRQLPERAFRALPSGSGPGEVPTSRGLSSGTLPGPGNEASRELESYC
To be noted: 10µM, Favipiravir 100μM.

Experiment [6] concerns the target T4, 348 GPCRs (Homo sapiens, UniProt P51677).
T4 construct: expressed in transfected cells; host or cells: HEK293A
T4 sequence (P51677 1-355): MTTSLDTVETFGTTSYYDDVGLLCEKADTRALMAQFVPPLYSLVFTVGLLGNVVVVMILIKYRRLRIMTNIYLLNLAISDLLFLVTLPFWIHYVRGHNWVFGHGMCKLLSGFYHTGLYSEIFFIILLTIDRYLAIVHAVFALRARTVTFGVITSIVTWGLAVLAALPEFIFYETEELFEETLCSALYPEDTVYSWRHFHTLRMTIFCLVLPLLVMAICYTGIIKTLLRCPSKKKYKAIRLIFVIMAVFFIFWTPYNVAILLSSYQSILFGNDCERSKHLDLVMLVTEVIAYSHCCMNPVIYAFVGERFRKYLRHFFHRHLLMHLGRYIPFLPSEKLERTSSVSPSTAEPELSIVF
The conditions noted are these: 10µM, Favipiravir 100μM.

For experiment [7], the target named is T5, 348 GPCRs (Homo sapiens, UniProt Q8NGU9).
T5 construct: expressed in transfected cells; host or cells: HEK293A
The conditions noted are these: 10µM, Favipiravir 100μM.

The target in experiment [8] is T6, 348 GPCRs (Homo sapiens, UniProt Q96AM1).
T6 construct: expressed in transfected cells; host or cells: HEK293A
The conditions noted are these: 10µM, Favipiravir 100μM.

Experiment [9] concerns the target T7, 348 GPCRs (Homo sapiens, UniProt Q99705).
T7 construct: expressed in transfected cells; host or cells: HEK293A

The target in experiment [10] is T8, 348 GPCRs (Homo sapiens, UniProt Q9BXC1).
T8 construct: expressed in transfected cells; host or cells: HEK293A
The conditions noted are these: 10µM, Favipiravir 100μM.

Experiment [11] has as its target T9, 348 GPCRs (Homo sapiens, UniProt Q9NYW2).
T9 construct: expressed in transfected cells; host or cells: HEK293A
T9 sequence (Q9NYW2 1-309): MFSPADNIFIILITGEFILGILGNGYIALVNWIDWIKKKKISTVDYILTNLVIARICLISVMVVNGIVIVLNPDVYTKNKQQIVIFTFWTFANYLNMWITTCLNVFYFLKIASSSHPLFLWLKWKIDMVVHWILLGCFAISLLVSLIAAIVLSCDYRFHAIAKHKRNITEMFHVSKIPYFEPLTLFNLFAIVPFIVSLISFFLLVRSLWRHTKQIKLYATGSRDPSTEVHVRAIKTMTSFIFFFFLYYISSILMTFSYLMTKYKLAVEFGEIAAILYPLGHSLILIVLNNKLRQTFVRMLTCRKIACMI
The conditions noted are these: 10µM, Favipiravir 100μM.

The target in experiment [12] is T10, 348 GPCRs (Homo sapiens, UniProt Q9P1P5).
T10 construct: expressed in transfected cells; host or cells: HEK293A
T10 sequence (Q9P1P5 1-351): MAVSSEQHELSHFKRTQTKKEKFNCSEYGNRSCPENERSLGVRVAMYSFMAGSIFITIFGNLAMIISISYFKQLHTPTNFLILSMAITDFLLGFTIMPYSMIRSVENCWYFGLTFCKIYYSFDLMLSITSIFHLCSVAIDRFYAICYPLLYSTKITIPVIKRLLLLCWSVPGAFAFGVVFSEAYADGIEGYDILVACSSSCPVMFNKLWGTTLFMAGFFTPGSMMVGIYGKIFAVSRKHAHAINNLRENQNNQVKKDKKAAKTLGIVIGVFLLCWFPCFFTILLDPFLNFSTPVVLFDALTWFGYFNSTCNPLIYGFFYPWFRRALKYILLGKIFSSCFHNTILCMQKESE
To be noted: 10µM, Favipiravir 100μM.

Where [13] appears, read: read-out: % GPCR activation compared to TPA, D5 (dopamine receptor D5).
[14] abbreviates: read-out: % GPCR activation compared to TPA, GPCR V1A (arginine vasopressin receptor 1A).
Setting [15] is: read-out: % GPCR activation compared to TPA, EP2 (prostaglandin E receptor 2).
Setting [16] is: read-out: % GPCR activation compared to TPA, GLP1R (glucagon-like peptide 1 receptor).
The mark [17] stands for this setting: read-out: % GPCR activation compared to TPA, GIPR (gastric inhibitory polypeptide receptor).
Where [18] appears, read: read-out: % GPCR activation compared to TPA, CCR3 (C-C motif chemokine receptor 3).
Setting [19] is: read-out: % GPCR activation compared to TPA, GPR150 (G protein-coupled receptor 150).
Where [20] appears, read: read-out: % GPCR activation compared to TPA, MRGF (MAS-related GPR, member F).
Where [21] appears, read: read-out: % GPCR activation compared to TPA, MRGPRF (MAS-related GPR, member F).
Setting [22] is: read-out: % GPCR activation compared to TPA, GPCR MCHR1 (melanin concentrating hormone receptor 1).
The mark [23] stands for this setting: read-out: % GPCR activation compared to TPA, GPR174 (G-Protein Coupled Receptor 174).
[24] abbreviates: read-out: % GPCR activation compared to TPA, TAS2R8 (taste receptor, type 2, member 8).
[25] abbreviates: read-out: % GPCR activation compared to TPA, TAAR2 (trace amine associated receptor 2).
The mark [26] stands for this setting: D5 (dopamine receptor D5), read-out: % GPCR activation compared to TPA.
[27] abbreviates: EP2 (prostaglandin E receptor 2), read-out: % GPCR activation compared to TPA.
[28] abbreviates: GLP1R (glucagon-like peptide 1 receptor), read-out: % GPCR activation compared to TPA.
The mark [29] stands for this setting: GIPR (gastric inhibitory polypeptide receptor), read-out: % GPCR activation compared to TPA.
The mark [30] stands for this setting: CCR3 (C-C motif chemokine receptor 3), read-out: % GPCR activation compared to TPA.
[31] abbreviates: GPR150 (G protein-coupled receptor 150), read-out: % GPCR activation compared to TPA.
The mark [32] stands for this setting: MRGF (MAS-related GPR, member F), read-out: % GPCR activation compared to TPA.
[33] abbreviates: MRGPRF (MAS-related GPR, member F), read-out: % GPCR activation compared to TPA.
Where [34] appears, read: GPR174 (G-Protein Coupled Receptor 174), read-out: % GPCR activation compared to TPA.
[35] abbreviates: TAS2R8 (taste receptor, type 2, member 8), read-out: % GPCR activation compared to TPA.
Where [36] appears, read: TAAR2 (trace amine associated receptor 2), read-out: % GPCR activation compared to TPA.
Setting [37] is: GPCR V1A (arginine vasopressin receptor 1A), read-out: % GPCR activation compared to TPA.
The mark [38] stands for this setting: GPCR MCHR1 (melanin concentrating hormone receptor 1), read-out: % GPCR activation compared to TPA.

Where two headings read alike, the source gives them in different places.

T1 sequence (P37288 whole entry): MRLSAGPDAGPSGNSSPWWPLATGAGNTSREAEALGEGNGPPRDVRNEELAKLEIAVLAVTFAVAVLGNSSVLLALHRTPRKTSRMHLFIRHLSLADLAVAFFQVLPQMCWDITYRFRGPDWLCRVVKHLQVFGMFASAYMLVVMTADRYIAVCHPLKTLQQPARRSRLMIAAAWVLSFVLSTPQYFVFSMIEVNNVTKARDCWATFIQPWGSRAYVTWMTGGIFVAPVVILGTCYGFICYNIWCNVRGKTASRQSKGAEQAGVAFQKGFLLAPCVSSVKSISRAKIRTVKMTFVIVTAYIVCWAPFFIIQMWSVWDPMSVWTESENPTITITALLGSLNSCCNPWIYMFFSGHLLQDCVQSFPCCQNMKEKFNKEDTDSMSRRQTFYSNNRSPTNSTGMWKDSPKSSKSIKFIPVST
348 GPCRs (Homo sapiens, UniProt P43220), sequence (P43220 24-463): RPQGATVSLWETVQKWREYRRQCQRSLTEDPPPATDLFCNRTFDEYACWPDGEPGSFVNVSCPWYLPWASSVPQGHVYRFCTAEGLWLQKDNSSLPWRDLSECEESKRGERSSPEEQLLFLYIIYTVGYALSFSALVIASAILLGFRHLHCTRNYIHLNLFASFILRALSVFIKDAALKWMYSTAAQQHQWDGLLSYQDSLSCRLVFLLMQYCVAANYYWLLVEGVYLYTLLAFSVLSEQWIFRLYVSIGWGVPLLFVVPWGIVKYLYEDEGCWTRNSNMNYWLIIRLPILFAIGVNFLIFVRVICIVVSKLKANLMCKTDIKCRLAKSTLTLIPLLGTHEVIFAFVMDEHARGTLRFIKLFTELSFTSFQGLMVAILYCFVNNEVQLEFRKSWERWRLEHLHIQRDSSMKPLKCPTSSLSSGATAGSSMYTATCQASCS
T6 sequence (Q96AM1 whole entry): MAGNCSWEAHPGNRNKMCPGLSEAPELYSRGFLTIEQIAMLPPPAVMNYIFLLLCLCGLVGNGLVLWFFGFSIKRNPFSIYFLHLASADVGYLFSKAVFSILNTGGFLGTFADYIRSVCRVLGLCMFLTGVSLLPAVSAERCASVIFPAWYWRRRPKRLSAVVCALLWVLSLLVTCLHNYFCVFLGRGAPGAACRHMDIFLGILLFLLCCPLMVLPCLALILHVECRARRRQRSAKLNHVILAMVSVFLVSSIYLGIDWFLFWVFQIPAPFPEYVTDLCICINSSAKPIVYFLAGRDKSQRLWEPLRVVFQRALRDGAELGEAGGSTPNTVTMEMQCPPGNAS
T7 sequence (Q99705 whole entry): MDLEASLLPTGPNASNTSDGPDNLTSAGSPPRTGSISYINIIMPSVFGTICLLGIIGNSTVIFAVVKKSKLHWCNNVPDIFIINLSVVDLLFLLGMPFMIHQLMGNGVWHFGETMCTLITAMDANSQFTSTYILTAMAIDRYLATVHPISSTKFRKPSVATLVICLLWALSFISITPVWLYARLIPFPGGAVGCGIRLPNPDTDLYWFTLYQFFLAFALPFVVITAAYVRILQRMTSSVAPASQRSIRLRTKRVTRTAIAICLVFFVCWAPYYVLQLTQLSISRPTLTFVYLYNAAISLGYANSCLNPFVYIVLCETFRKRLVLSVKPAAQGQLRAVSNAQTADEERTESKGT
T8 sequence (Q9BXC1 whole entry): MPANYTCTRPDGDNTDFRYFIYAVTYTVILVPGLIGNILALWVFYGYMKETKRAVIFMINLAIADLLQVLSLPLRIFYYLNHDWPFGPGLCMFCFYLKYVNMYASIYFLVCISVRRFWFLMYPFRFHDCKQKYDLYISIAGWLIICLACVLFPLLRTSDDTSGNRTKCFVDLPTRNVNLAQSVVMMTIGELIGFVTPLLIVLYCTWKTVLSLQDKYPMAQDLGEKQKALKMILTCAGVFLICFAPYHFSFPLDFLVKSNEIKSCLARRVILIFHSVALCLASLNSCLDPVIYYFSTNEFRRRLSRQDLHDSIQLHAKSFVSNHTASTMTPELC
348 GPCRs (Homo sapiens, UniProt P21918), sequence (P21918 whole entry): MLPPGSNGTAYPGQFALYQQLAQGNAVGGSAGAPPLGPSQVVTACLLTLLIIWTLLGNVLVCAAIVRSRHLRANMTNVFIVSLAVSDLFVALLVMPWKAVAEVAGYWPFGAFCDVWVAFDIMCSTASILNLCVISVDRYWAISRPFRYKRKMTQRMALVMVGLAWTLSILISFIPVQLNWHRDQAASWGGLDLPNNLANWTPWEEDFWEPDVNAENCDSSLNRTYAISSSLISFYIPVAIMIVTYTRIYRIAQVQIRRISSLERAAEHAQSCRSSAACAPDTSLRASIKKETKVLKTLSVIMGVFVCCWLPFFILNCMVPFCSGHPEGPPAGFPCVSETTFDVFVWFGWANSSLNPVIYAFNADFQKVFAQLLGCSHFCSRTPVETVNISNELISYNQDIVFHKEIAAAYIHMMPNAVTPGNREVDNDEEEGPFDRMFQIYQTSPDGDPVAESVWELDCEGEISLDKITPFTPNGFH
T2 sequence (P43116 whole entry): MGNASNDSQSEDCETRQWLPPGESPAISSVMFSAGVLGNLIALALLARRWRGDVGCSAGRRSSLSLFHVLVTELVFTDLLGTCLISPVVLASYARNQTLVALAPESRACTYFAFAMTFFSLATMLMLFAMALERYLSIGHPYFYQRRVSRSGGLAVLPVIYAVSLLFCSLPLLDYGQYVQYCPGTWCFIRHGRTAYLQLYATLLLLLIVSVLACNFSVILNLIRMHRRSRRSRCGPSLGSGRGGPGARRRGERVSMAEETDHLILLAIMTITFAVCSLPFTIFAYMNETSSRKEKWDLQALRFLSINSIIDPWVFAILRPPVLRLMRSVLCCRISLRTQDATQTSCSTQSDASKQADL
T5 sequence (Q8NGU9 whole entry): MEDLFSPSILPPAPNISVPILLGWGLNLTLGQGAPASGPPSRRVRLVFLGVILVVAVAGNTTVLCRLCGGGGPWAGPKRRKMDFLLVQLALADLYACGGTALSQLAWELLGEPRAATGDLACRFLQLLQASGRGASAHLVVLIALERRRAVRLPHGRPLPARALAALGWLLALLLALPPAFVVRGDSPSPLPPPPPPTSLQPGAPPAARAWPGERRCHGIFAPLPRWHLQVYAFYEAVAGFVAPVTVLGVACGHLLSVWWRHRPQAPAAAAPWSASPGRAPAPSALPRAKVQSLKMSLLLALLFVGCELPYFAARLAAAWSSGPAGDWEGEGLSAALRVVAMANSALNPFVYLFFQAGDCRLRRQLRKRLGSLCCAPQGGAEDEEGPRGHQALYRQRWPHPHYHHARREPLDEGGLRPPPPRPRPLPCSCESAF

In the case of `CC(C)OC(=O)[C@H](C)N[P@](=O)(OC[C@H]1O[C@@H](n2ccc(=O)[nH]c2=O)[C@](C)(F)[C@@H]1O)Oc1ccccc1` [sofosbuvir], the activation at 100 µM in experiment [1] (setting [13]) is -1.22%; in experiment [6] (setting [18]), -1.65%; in experiment [7] (setting [19]) it was 0.239%; in experiment [8] (setting [20]), -2.71%; in experiment [8] (setting [21]), -0.0367%; in [10] (setting [23]), -1.73%. The activation at 100 µM in experiment [12] (setting [25]) is -0.403%. Also, the activation at 10 µM was -0.512% in [2] (setting [14]); -1.21% in experiment [3] (setting [15]); -2.54% in experiment [4] (setting [16]); -0.359% in [5] (setting [17]); -4.22% in experiment [9] (setting [22]); 0.759% in [11] (setting [24]).
For `NC(=O)c1nc(F)cnc1O` [favipiravir, 6-fluoro-3-hydroxy-2-pyrazinecarboxamide], the activation at 100 µM in experiment [1] (setting [26]) was 3.39%; in experiment [2] (GPCR V1A (arginine vasopressin receptor 1A), 100μM, read-out: % GPCR activation compared to TPA), 0.923%; in experiment [6] (setting [30]), 2.7%; in experiment [7] (setting [31]), -0.462%; in [8] (setting [32]) it was 0.745%; in [8] (setting [33]), -1.13%. Besides, the activation at 100 µM in experiment [9] (GPCR MCHR1 (melanin concentrating hormone receptor 1), 100μM, read-out: % GPCR activation compared to TPA) was -2.9%; in [10] (setting [34]) it was -2.2%; in [12] (setting [36]), 0.753%. In addition, the activation at 10 µM in experiment [3] (setting [27]) was 0.965%; in experiment [4] (setting [28]) it was -2.54%; in [5] (setting [29]) it was -1.79%; in experiment [11] (setting [35]) it was -0.549%.
With `CCC(CC)COC(=O)[C@H](C)N[P@](=O)(OC[C@H]1O[C@@](C#N)(c2ccc3c(N)ncnn23)[C@H](O)[C@@H]1O)Oc1ccccc1` [remdesivir], the activation at 100 µM in [1] (setting [13]) was 7.06%; in experiment [6] (setting [18]), 7.61%; in experiment [7] (setting [19]), 6.96%; in experiment [8] (setting [20]) it was 0.574%; in experiment [8] (setting [21]), -0.326%; in [10] (setting [23]), 1.12%. Besides, in experiment [12] (setting [25]), the activation at 100 µM worked out at 1.05%. Moreover, the activation at 10 µM is 0.24% in experiment [2] (setting [14]); 1.83% in experiment [3] (setting [15]); -0.928% in experiment [4] (setting [16]); -2.47% in [5] (setting [17]); -1.97% in [9] (setting [22]); 0.189% in experiment [11] (setting [24]).
Consider `N#C[C@@]1(c2ccc3c(N)ncnn23)O[C@H](CO)[C@@H](O)[C@H]1O` [GS441524], for which the activation at 100 µM in experiment [1] (setting [26]) is 1.11%; in [6] (setting [30]) it was 3.06%; in [7] (setting [31]), 0.708%; in [8] (setting [32]), 4.76%; in experiment [8] (setting [33]), -0.751%; in experiment [10] (setting [34]), -2.64%. Further, the activation at 100 µM in experiment [12] (setting [36]) was -1.42%. The activation at 10 µM in experiment [2] (setting [37]) is -0.48%; in experiment [3] (setting [27]), -0.304%; in experiment [4] (setting [28]), -1.52%; in experiment [5] (setting [29]), -3.77%; in experiment [9] (setting [38]), -1.77%; in experiment [11] (setting [35]), 0.391%.
Consider `CC(C)C(=O)OC[C@H]1O[C@@H](n2ccc(NO)nc2=O)[C@H](O)[C@@H]1O` [molnupiravir], for which the activation at 100 µM in experiment [1] (setting [26]) was -1.18%; in [6] (setting [30]) it was -0.741%; in experiment [7] (setting [31]), -6.13%; in experiment [8] (setting [32]), -3.54%; in experiment [8] (setting [33]) it was -0.471%; in [10] (setting [34]), -2%. The activation at 100 µM in experiment [12] (setting [36]) is -0.153%. Besides, the activation at 10 µM in experiment [2] (setting [37]) was 0.0613%; in [3] (setting [27]) it was -0.705%; in experiment [4] (setting [28]), -2.83%; in experiment [5] (setting [29]), 1.42%; in [9] (setting [38]), -2.69%; in [11] (setting [35]) it was -0.417%.
